The values that follow come from publication PMC7265341, “Quantifying CDK inhibitor selectivity in live cells” (Nature Communications, 2020).

Experiment [1] deals with CDK19/Cyclin C (Homo sapiens, UniProt Q9BWU1). Description: cell-based.
The target of experiment [2] is CDK3/Cyclin E1 (Homo sapiens, UniProt Q00526). Put plainly: NanoBRET live-cell target engagement, CDK3-NanoLuc/Cyclin E1 in HEK-293. The experiment is classed as binding. As to conditions: CDK3/E1, 10µM. (BRET reads energy transfer from a luciferase to a nearby fluorophore.)
Experiment [3] concerns the target CDK2/Cyclin E1 (Homo sapiens, UniProt P24941). Description: NanoBRET live-cell target engagement, CDK2-NanoLuc/Cyclin E1 in HEK-293. The format is binding. The conditions noted are these: CDK2/E1, 10µM.
The target in experiment [4] is T1, CDK9 (HiBiT, endogenous locus) (Homo sapiens, UniProt P50750).
T1 construct: endogenous in cells; host or cells: HEK293 edited by CRISPR/Cas9, transduced with LgBiT BacMam
Description: Target engagement in HEK293 endogenously edited (CRISPR/Cas9) with HiBiT on CDK9. The experiment is classed as binding. Details: unit not given here.

Experiment [5] concerns all 21 human CDKs. Put plainly: Live-cell selectivity profile across all 21 CDK/cyclin complexes in HEK-293. The format is binding. As to conditions: remaining CDK family, live HEK-293; read-out: Collateral CDK (potency).
Setting [6] is: average of replicates, read-out: Inhibition at 10µM (%) Average.
The mark [7] stands for this setting: read-out: Inhibition at 10µM (%) Replicate 1.
Setting [8] is: read-out: Inhibition at 10µM (%) Replicate 2.

Values joined by “and” are separate entries in the source; they are usually repeats but may differ in a detail not shown here. Identical values can stand only once. Like-named read-outs stand apart in the source and are kept apart here.

T1 sequence (P50750 whole entry): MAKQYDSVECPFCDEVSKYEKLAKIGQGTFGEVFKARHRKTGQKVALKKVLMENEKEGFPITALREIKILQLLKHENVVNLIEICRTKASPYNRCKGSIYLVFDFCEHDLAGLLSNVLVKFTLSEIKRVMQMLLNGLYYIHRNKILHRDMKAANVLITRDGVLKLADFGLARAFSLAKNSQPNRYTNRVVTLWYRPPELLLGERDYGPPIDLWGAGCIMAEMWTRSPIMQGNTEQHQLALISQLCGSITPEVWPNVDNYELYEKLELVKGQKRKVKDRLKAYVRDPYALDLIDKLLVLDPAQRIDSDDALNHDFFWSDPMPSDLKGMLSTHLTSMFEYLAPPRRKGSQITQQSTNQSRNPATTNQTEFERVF
Sequence of CDK3/Cyclin E1 (Q00526 whole entry): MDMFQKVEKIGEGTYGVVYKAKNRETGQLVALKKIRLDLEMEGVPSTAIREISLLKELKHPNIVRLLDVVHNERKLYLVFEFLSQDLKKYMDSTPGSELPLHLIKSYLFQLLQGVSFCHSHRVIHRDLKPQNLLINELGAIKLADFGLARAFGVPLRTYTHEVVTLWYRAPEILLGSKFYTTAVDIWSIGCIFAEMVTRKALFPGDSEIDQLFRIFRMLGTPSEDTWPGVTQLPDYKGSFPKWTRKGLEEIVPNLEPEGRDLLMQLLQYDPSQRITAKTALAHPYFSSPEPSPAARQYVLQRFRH
Sequence of CDK3/Cyclin E1 (P24864 whole entry partner): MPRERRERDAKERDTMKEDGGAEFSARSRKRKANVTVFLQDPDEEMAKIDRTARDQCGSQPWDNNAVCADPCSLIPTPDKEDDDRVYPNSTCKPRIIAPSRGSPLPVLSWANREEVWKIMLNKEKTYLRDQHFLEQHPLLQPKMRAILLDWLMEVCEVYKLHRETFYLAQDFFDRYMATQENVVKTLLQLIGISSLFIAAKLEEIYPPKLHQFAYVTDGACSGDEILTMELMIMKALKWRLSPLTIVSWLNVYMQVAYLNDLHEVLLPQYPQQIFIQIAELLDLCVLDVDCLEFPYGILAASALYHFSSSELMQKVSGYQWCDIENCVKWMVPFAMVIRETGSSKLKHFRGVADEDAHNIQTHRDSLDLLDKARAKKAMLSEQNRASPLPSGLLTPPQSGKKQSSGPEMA
Sequence of CDK19/Cyclin C (Q9BWU1 whole entry): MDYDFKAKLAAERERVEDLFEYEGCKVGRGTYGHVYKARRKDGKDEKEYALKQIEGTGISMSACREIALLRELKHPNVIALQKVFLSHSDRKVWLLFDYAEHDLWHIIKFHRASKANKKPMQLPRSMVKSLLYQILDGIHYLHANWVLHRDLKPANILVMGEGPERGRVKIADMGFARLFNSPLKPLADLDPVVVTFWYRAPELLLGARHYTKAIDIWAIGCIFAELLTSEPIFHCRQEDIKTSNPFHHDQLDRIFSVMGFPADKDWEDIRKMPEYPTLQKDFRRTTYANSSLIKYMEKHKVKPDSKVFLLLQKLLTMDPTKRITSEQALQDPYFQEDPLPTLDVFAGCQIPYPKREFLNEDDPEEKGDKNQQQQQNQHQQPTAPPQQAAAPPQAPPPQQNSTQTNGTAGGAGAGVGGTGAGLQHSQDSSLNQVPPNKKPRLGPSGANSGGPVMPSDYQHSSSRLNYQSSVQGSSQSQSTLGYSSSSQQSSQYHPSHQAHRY
Sequence of CDK19/Cyclin C (P24863 whole entry partner): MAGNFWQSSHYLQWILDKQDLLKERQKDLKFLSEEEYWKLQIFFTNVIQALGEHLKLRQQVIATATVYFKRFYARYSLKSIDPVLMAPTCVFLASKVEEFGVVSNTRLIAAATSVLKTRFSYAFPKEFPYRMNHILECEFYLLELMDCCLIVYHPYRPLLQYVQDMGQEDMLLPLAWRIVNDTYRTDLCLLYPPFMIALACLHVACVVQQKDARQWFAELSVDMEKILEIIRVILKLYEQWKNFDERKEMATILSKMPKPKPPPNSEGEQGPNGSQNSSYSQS

As for `CCN1CCN(Cc2ccc(NC(=O)Nc3ccc(Oc4cc(NC)ncn4)cc3)cc2C(F)(F)F)CC1` [AST-487], in experiment [1], the IC50 turned out to be 5.9 nM. Moreover, the inhibition (in general, the relative decrease from the control value, in per cent) at 10 µM in experiment [2] (setting [6]) is 71.7%; in experiment [2] (setting [7]), 58%; in experiment [2] (setting [8]) it was 85.5%; in experiment [3] (setting [6]), 2.9%; in experiment [3] (setting [7]), -18.7%; in experiment [3] (setting [8]), 24.5%.
With `COc1cc(F)ccc1-c1cc(Nc2cc(CS(C)(=N)=O)ccn2)ncc1F` (stereo not shown) [BAY-1251152], the “CDK9 Occupancy Data, CRISPR/HiBiT” value was 108.918 and 104.91 in experiment [4] (LOG10([BAY-1251152]) (LOG10(µM)) 0.045757); 117.335 and 92.6854 in experiment [4] (LOG10([BAY-1251152]) (LOG10(µM)) 0.522879); 97.495 and 102.505 in experiment [4] (LOG10([BAY-1251152]) (LOG10(µM)) 1); 105.11 and 102.705 in experiment [4] (LOG10([BAY-1251152]) (LOG10(µM)) -0.43136); 108.717 and 93.6874 in experiment [4] (LOG10([BAY-1251152]) (LOG10(µM)) -0.90849); 87.2745 and 99.499 in experiment [4] (LOG10([BAY-1251152]) (LOG10(µM)) -1.38561). In addition, the “CDK9 Occupancy Data, CRISPR/HiBiT” value in experiment [4] (LOG10([BAY-1251152]) (LOG10(µM)) -1.86273) was 72.6453 and 62.8257; in experiment [4] (LOG10([BAY-1251152]) (LOG10(µM)) -2.33985), 30.9619 and 31.9639. Moreover, the inhibition at 10 µM in experiment [2] (setting [6]) turned out to be 77.9%; in experiment [2] (setting [7]), 75.8%; in experiment [2] (setting [8]), 80%; in experiment [3] (setting [6]) it was 72.3%; in experiment [3] (setting [7]), 71%; in experiment [3] (setting [8]) it was 73.6%. Besides, in experiment [5], the IC50 was greater than 1000 nM.
